Laboratory results reported in patent US11718864B2, “Cells and method of cell culture” (PFIZER INC., priority 2015, dated 2023).

Key:
Type in all cases: cell-based, Chinese hamster
[1] = system: GS-CHO cells (Cell line A); experiment: Growth (viable cell density) of GS-CHO cells in Medium A spiked with putative inhibitor metabolites; conditions: single metabolite
Experimental: GS-CHO cells producing a recombinant antibody were inoculated at low viable cell densities (0.1E6 cells/mL) in various conditions in 5 ml volume, 6-well plate cultures. […] The pH of the Medium A, spiked-in with any one of the nine metabolites or any combination of the nine metabolites, was adjusted to 7 before inoculating the cells (on day 0).
For indolelactate, the stock solution (500 mM) was prepared in DMSO. […] All the conditions were run in duplicates or triplicates. Growth of the cells in above described conditions was monitored for 5 or 6 days.

CHO cell line A = experiment: Growth of CHO cell line A in Medium A supplemented with 2-methylbutyrate or isobutyrate; conditions: at concentrations higher than 1 mM; monitored 5 days
Experimental: CHO cell line A producing a recombinant antibody were inoculated at low cell densities (0.1E6 cells/mL) in various conditions in triplicates in 6-well plate cultures. The working volume for each well on day 0 was 4 mL. […] The 6-well plates were incubated on a shaking platform in 36.5 C and 5% carbon dioxide. Cell growth in all the conditions was monitored for 5 days.

BCAT1 = experiment: Western blot of BCAT1 protein after transient miRNA transfection, CHO parental cell line; conditions: CHO parental cell line transient transfections, vs untransfected and negative control miRNA
Experimental: miRNA knockdown works by expressing small RNA sequences (approximately 20-25 bases) that are complimentary to a target gene sequence (e.g. BCAT1). The miRNA binds to the messenger RNA (mRNA) of the target gene forming a region of double stranded RNA. […] Micro RNA knockdown of BCAT1 was performed using the BLOCK-iT Inducible Pol II miR RNAi Expression Vector Kit with EmGFP (Invitrogen). Five miRNA oligonucleotide pairs (complementary top and bottom strand of BCAT1) were designed using an online tool called Block-iT RNAi Designer and the DNA oligonucleotides were prepared by Integrated DNA technologies. The oligonucleotide pairs were annealed and ligated into the pcDNA™6.2-GW/EmGFP-miR vector. The vectors (five of them) were sequence confirmed by WyzerBiosciences (Cambridge, Mass.). The five miRNA vectors or a negative control vector named pcDNA™6.2-GW/EmGFP-miR-neg (provided by Invitrogen with the kit) were transfected into CHO parental cell line or CHO cell line B using the GenePulser XCell eletroporator (BioRad) and were left to recover for two days. After two days, cells were either subjected to selection pressure by antibiotic (blasticidin, 10 ug/mL) for generation of stable cell pools (see Example 24), or cell lysates from the transfected cells (or untransfected cells) were prepared in M-PER protein extraction reagent (Thermo Fisher) supplemented with cOmplete, Mini, EDTA-free Protease Inhibitor Cocktail (Roche). The samples were analyzed by western blot using the Novex NuPage system (Thermo Fisher). The system provides polyacrylamide gels, sample loading buffer, sample reductant, gel running buffer, protein mass standard, nitrocellulose membrane, and chemiluminescence detection reagent. The blots were probed with a rabbit polyclonal anti-BCAT1 antibody (AbCam, Cat#ab110761) or a B-Actin antibody (AbCam, Cat#ab8227). The western blots were imaged using a BioRad ChemiDoc system and analyzed for levels of B-actin and BCAT1.

[2] = at concentrations higher than 0.5 mM or 1 mM

CCC(O)C(=O)O (stereo not drawn) [2-hydroxybutyric acid]
effect on growth of cells [1, 2]: Modest inhibition of growth

O=C(O)C(O)Cc1ccc(O)cc1 (stereo not drawn) [3-(4-hydroxyphenyl)lactate]
effect on growth of cells [1, 2]: Modest inhibition of growth

O=CO [Formate]
effect on growth of cells ([1]; at concentrations 2 mM and beyond): negative effect on growth

O=C(O)c1c[nH]c2ccccc12 [Indolecarboxylic acid]
effect on growth of cells ([1]; at concentrations of 1 mM or lower, growth monitored 5 or 6 days): potent negative effect on growth

O=C(O)C(O)Cc1c[nH]c2ccccc12 (stereo not drawn) [Indolelactate]
effect on growth of cells ([1]; at concentrations of 3 mM or below, DMSO controls): little or no effect on growth

O=C(O)[C@H](O)Cc1ccccc1 [L-phenyllactate]
effect on growth of cells ([1]; at 1 mM concentration): mild effect on growth

N[C@@H](CCS)C(=O)O [homocysteine]
effect on growth of cells [1, 2]: Modest inhibition of growth

CC(C)C(=O)O [isobutyrate]
cell growth (CHO cell line A): suppressed

miRNA Seq 2.1a: BCAT1 miRNA sequence TCTGCTGTGAGGACCACTTTG expressed from pcDNA6.2-GW/EmGFP-miR vector (listed as Cricetulus griseus)
BCAT1 protein level (western blot) (BCAT1): lower level of BCAT1 protein

miRNA Seq 3.1a: BCAT1 miRNA sequence AGTGGGCACGATGAATCTGTT expressed from pcDNA6.2-GW/EmGFP-miR vector (listed as Cricetulus griseus)
BCAT1 protein level (western blot) (BCAT1): lower level of BCAT1 protein

miRNA Seq 4.1a: BCAT1 miRNA sequence CACGATGAATCTGTTCCTCTA expressed from pcDNA6.2-GW/EmGFP-miR vector (listed as Cricetulus griseus)
BCAT1 protein level (western blot) (BCAT1): lower level of BCAT1 protein

miRNA Seq 5.1a: BCAT1 miRNA sequence CTTGGGCAAACTGACTGATAT expressed from pcDNA6.2-GW/EmGFP-miR vector (listed as Cricetulus griseus)
BCAT1 protein level (western blot) (BCAT1): lower level of BCAT1 protein
